Experimental data from PubChem BioAssay AID1259407 (Chemical Carcinogenesis Research Information System (CCRIS), 2018).
Active and inactive are the calls of the source. The rule behind the calls is not given here.

Tested on: CCRIS mutagenicity, Ames/micronucleus/aberration tests
Test: CCRIS mutagenicity studies
[1] = Test System: AMES SALMONELLA TYPHIMURIUM, Strain/Indicator: TA100, Metabolic Activation: NONE, Method: PREINCUBATION
[2] = Test System: AMES SALMONELLA TYPHIMURIUM, Strain/Indicator: TA100, Metabolic Activation: NONE, Method: STANDARD PLATE
[3] = Test System: AMES SALMONELLA TYPHIMURIUM, Strain/Indicator: TA1535, Metabolic Activation: NONE, Method: PREINCUBATION
[4] = Test System: AMES SALMONELLA TYPHIMURIUM, Strain/Indicator: TA1535, Metabolic Activation: NONE, Method: STANDARD PLATE
[5] = Test System: AMES SALMONELLA TYPHIMURIUM, Strain/Indicator: TA98, Metabolic Activation: NONE, Method: PREINCUBATION
[6] = Test System: AMES SALMONELLA TYPHIMURIUM, Strain/Indicator: TA98, Metabolic Activation: NONE, Method: STANDARD PLATE
[7] = Test System: AMES SALMONELLA TYPHIMURIUM, Strain/Indicator: TA98, Metabolic Activation: RAT, LIVER, S-9, AROCLOR 1254, Method: STANDARD PLATE
[8] = Test System: AMES SALMONELLA TYPHIMURIUM, Strain/Indicator: TA100, Metabolic Activation: RAT, LIVER, S-9, AROCLOR 1254, Method: PREINCUBATION
[9] = Test System: AMES SALMONELLA TYPHIMURIUM, Strain/Indicator: TA100, Metabolic Activation: RAT, LIVER, S-9, AROCLOR 1254, Method: STANDARD PLATE
[10] = Test System: AMES SALMONELLA TYPHIMURIUM, Strain/Indicator: TA1535, Metabolic Activation: RAT, LIVER, S-9, AROCLOR 1254, Method: STANDARD PLATE

Cc1ccc(CC2CO2)cc1 (centres undefined)
mutagenic call [1]: active; positive
mutagenic call [2]: active; positive
mutagenic call [3]: active; positive
mutagenic call [4]: active; positive

O=S(=O)(O)c1ccc2cc(Oc3ccc4cc(S(=O)(=O)O)ccc4c3)ccc2c1
mutagenic call [5]: inactive; negative
mutagenic call (Test System: AMES SALMONELLA TYPHIMURIUM, Strain/Indicator: TA98, Metabolic Activation: RAT, LIVER, S-9, PHENOBARBITAL, Method: PREINCUBATION): inactive; negative
mutagenic call [1]: inactive; negative
mutagenic call (Test System: AMES SALMONELLA TYPHIMURIUM, Strain/Indicator: TA100, Metabolic Activation: RAT, LIVER, S-9, PHENOBARBITAL, Method: PREINCUBATION): inactive; negative

O=NN1CCSC1CO (centres undefined)
mutagenic call [5]: inactive; negative
mutagenic call [6]: inactive; negative
mutagenic call (Test System: AMES SALMONELLA TYPHIMURIUM, Strain/Indicator: TA98, Metabolic Activation: RAT, LIVER, S-9, AROCLOR 1254, Method: PREINCUBATION): inactive; negative
mutagenic call [7]: inactive; negative
mutagenic call [1]: active; positive
mutagenic call [2]: active; positive
mutagenic call [8]: active; positive
mutagenic call [9]: active; positive

CC(=O)C(Cl)Cl
mutagenic call [6]: inactive; negative
mutagenic call [7]: inactive; negative
mutagenic call (Test System: AMES SALMONELLA TYPHIMURIUM, Strain/Indicator: TA100, Metabolic Activation: NONE, Method: FLUCTUATION TEST): active; positive
mutagenic call (Test System: AMES SALMONELLA TYPHIMURIUM, Strain/Indicator: TA100, Metabolic Activation: RAT, LIVER, S-9, AROCLOR 1254, Method: FLUCTUATION TEST): inactive; negative
mutagenic call [9]: active; positive
mutagenic call [4]: active; positive
mutagenic call [10]: active; positive
mutagenic call (Test System: AMES SALMONELLA TYPHIMURIUM, Strain/Indicator: TA1537, Metabolic Activation: NONE, Method: STANDARD PLATE): inactive; negative
mutagenic call (Test System: AMES SALMONELLA TYPHIMURIUM, Strain/Indicator: TA1537, Metabolic Activation: RAT, LIVER, S-9, AROCLOR 1254, Method: STANDARD PLATE): inactive; negative

c1ccc2ncccc2c1
mutagenic call (End Point: IN VITRO CHROMOSOMAL ABERRATIONS, Test System: CHL CELLS, Metabolic Activation: NONE): inactive; negative
mutagenic call (End Point: IN VITRO CHROMOSOMAL ABERRATIONS, Test System: CHL CELLS, Metabolic Activation: RAT, LIVER, S-9, SODIUM PHENOBARBITAL AND 5,6-BENZOFLAVONE): active; positive (structural changes)
mutagenic call (End Point: IN VIVO MICRONUCLEUS, Test System: HEPATOCYTES, Species: RAT, Strain/Sex: FISHER 344 OR SD/MALE, Route: ORAL OR IP): active; positive
mutagenic call (End Point: IN VIVO MICRONUCLEUS, Test System: PERIPHERAL BLOOD RETICULOCYTES, Species: RAT, Strain/Sex: FISHER 344 OR SD/MALE, Route: ORAL OR IP): inactive; negative; significant increase at 150 mg/kg
mutagenic call (End Point: In vitro chromosomal aberrations, Test System: Chinese hamster lung fibroblast cells (CHL/IU), Metabolic Activation: Rat, liver, S-9): active; positive (information derived from figure)
mutagenic call (End Point: In vitro micronucleus, Test System: Chinese hamster lung fibroblast cells (CHL/IU), Metabolic Activation: Rat, Liver, S-9): active; positive, cytotoxic at 0.1 mg/ml (information derived from a figure)
mutagenic call (End Point: In vitro micronucleus, Test System: Chinese hamster lung fibroblast cells (CHL/IU), Metabolic Activation: Rat, liver, S-9): active; positive (information derived from a figure)
mutagenic call (End Point: In vivo micronucleus, Test System: Micronucleated hepatocytes, Species: Rat, Strain/Sex: F344/Male, Route: Oral): active; positive (p<0.05)
mutagenic call [5]: inactive; negative
mutagenic call (Test System: AMES SALMONELLA TYPHIMURIUM, Strain/Indicator: TA98, Metabolic Activation: RAT LIVER S-9, PHENOBARBITAL AND BETA-NAPHTHOFLAVONE, Method: PREINCUBATION): active; positive
mutagenic call (Test System: AMES SALMONELLA TYPHIMURIUM, Strain/Indicator: TA98, Metabolic Activation: RAT, LIVER, S-9, (5%, 10% OR 20%) AROCLOR 1254, Method: STANDARD PLATE): active; positive
mutagenic call [7]: active; positive
mutagenic call (Test System: AMES SALMONELLA TYPHIMURIUM, Strain/Indicator: TA98, Metabolic Activation: RAT, LIVER, S-9, KC500 OR PHENOBARBITAL, Method: LIQUID SUSPENSION): active; positive
mutagenic call (Test System: AMES SALMONELLA TYPHIMURIUM, Strain/Indicator: TA98, Metabolic Activation: RAT, LIVER, S-9, PCB, Method: PREINCUBATION): active; positive
mutagenic call (Test System: AMES SALMONELLA TYPHIMURIUM, Strain/Indicator: TA98, Metabolic Activation: RAT, LIVER, S-9, Method: PREINCUBATION): active; positive
mutagenic call [1]: inactive; negative
mutagenic call (Test System: AMES SALMONELLA TYPHIMURIUM, Strain/Indicator: TA100, Metabolic Activation: RAT LIVER S-9, PHENOBARBITAL AND 5,6-BENZOFLAVONE, Method: PREINCUBATION): active; positive
mutagenic call (Test System: AMES SALMONELLA TYPHIMURIUM, Strain/Indicator: TA100, Metabolic Activation: RAT LIVER S-9, PHENOBARBITAL AND BETA-NAPHTHOFLAVONE, Method: PREINCUBATION): active; positive
mutagenic call (Test System: AMES SALMONELLA TYPHIMURIUM, Strain/Indicator: TA100, Metabolic Activation: RAT, LIVER, S-9 (5%, 10% OR 20%) AROCLOR 1254, Method: STANDARD PLATE): active; positive
mutagenic call (Test System: AMES SALMONELLA TYPHIMURIUM, Strain/Indicator: TA100, Metabolic Activation: RAT, LIVER, S-9, (5%, 10% OR 20%,) AROCLOR 1254, Method: STANDARD PLATE): active; positive
mutagenic call [8]: active; positive
mutagenic call (Test System: AMES SALMONELLA TYPHIMURIUM, Strain/Indicator: TA100, Metabolic Activation: RAT, LIVER, S-9, KC500 OR PHENOBARBITAL, Method: LIQUID SUSPENSION): active; positive
mutagenic call (Test System: AMES SALMONELLA TYPHIMURIUM, Strain/Indicator: TA100, Metabolic Activation: RAT, LIVER, S-9, PCB, Method: STANDARD PLATE): active; positive
mutagenic call (Test System: AMES SALMONELLA TYPHIMURIUM, Strain/Indicator: TA100, Metabolic Activation: RAT, LIVER, S-9, PHENOBARBITAL AND 5,6-BENZOFLAVONE, Method: PREINCUBATION): active; positive
mutagenic call (Test System: AMES SALMONELLA TYPHIMURIUM, Strain/Indicator: TA100, Metabolic Activation: RAT, LIVER, S-9, PHENOBARBITAL AND 5,6-NAPHTHOFLAVONE, Method: PREINCUBATION): active; positive
mutagenic call (Test System: AMES SALMONELLA TYPHIMURIUM, Strain/Indicator: TA100, Metabolic Activation: RAT, LIVER, S-9, Method: PREINCUBATION): active; positive
mutagenic call (Test System: AMES SALMONELLA TYPHIMURIUM, Strain/Indicator: TA100, Metabolic Activation: S-9, Method: PREINCUBATION): active; positive
mutagenic call [3]: inactive; negative
mutagenic call [10]: inactive; negative
mutagenic call (Test System: AMES SALMONELLA TYPHIMURIUM, Strain/Indicator: TA1537, Metabolic Activation: NONE, Method: PREINCUBATION): inactive; negative
mutagenic call (Test System: E. COLI, Strain/Indicator: WP2UVRA, Metabolic Activation: NONE, Method: PREINCUBATION): inactive; negative
mutagenic call (Test System: E.COLI, Strain/Indicator: WP2UVRA, Metabolic Activation: RAT LIVER S-9, PHENOBARBITAL AND BETA-NAPHTHOFLAVONE, Method: PREINCUBATION): active; positive
mutagenic call (Test System: UDS RODENT HEPATOCYTES, Strain/Indicator: THY INCORP (NON-S-PHASE), Metabolic Activation: IN VIVO, Method: AUTORADIOGRAPHY): inactive; negative
mutagenic call (Test System: UDS RODENT HEPATOCYTES, Strain/Indicator: THY INCORP (NON-S-PHASE), Metabolic Activation: NONE, Method: AUTORADIOGRAPHY): active; positive
